Results on 2 compounds are retold here after ChEMBL document CHEMBL4033685, “C21-steroidal pregnane sapogenins and their derivatives as anti-inflammatory agents” (Bioorg Med Chem, 2017).

For data set [1], the target named is T1, Toll-like receptor 4 (Homo sapiens, UniProt O00206). The data set can be described thus: Antagonist activity at TLR4 in human THP1 cells assessed as inhibition of LPS-stimulated TNFalpha level at 10 uM by bead based immunoassay. Format: cell-based.
Data set [2] has as its target T1, Toll-like receptor 4. The data set is described as follows: Antagonist activity at TLR4 in human THP1 cells assessed as inhibition of LPS-stimulated IL-6 level at 10 uM by bead based immunoassay. Format: cell-based.
Data set [3] has as its target Toll-like receptor 3 (Homo sapiens) (UniProt O15455). The data set can be described thus: Antagonist activity at TLR3 in human THP1 cells assessed as inhibition of poly IC-stimulated TNFalpha level at 10 uM by bead based immunoassay. Format: cell-based.
For data set [4], the system named is AD293. The data set is described as follows: Upregulation of IKKalpha protein expression in human AD293 cells at 10 uM after 3 hrs by Western blot analysis. Format: functional, cell-based. Background: Immunoblotting shows a protein as a band on a membrane.
The target in data set [5] is T1, Toll-like receptor 4. The data set can be described thus: Antagonist activity at TLR4 in human THP1 cells harboring human TRAF6 assessed as inhibition of LPS-stimulated IL-6 level at 10 uM by bead based immunoassay. It counts as cell-based.
For data set [6], the target named is T1, Toll-like receptor 4. The data set can be described thus: Antagonist activity at TLR4 in human THP1 cells harboring human TRAF6 assessed as inhibition of LPS-stimulated TNFalpha level at 10 uM by bead based immunoassay. It counts as cell-based.
The target of data set [7] is T1, Toll-like receptor 4. The data set can be described thus: Antagonist activity at TLR4 in human THP1 cells assessed as inhibition of LPS-stimulated IL-1beta level at 10 uM by bead based immunoassay. It counts as cell-based.
The target of data set [8] is Toll-like receptor 2 (Homo sapiens) (UniProt O60603). The data set is described as follows: Antagonist activity at TLR2 in human THP1 cells assessed as inhibition of PGN-stimulated TNFalpha level at 10 uM by bead based immunoassay. Format: cell-based.
Chain of Toll-like receptor 2 (Homo sapiens) (O60603 whole entry): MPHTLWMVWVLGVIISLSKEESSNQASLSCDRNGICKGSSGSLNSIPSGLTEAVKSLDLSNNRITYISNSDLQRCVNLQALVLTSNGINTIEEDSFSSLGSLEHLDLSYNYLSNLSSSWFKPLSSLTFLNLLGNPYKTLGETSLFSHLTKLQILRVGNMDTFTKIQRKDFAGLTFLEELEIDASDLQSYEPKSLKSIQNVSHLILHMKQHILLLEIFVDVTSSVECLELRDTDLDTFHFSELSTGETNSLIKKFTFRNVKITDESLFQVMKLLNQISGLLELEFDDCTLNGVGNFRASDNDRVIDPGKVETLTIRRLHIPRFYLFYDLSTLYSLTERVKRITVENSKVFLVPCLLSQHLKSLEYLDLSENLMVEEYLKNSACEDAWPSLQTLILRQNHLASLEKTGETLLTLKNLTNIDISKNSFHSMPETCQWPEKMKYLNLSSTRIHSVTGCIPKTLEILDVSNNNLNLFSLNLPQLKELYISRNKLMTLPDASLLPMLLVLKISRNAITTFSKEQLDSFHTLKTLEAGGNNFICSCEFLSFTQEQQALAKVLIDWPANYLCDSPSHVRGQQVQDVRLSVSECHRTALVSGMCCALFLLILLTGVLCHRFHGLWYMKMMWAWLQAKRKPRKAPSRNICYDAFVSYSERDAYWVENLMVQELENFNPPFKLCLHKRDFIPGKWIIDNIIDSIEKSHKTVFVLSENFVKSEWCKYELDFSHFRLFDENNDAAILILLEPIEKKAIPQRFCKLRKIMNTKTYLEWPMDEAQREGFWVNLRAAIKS
Data set [9] concerns AD293. The data set is described as follows: Upregulation of IKKalpha protein expression in TNFalpha-stimulated human AD293 cells at 10 uM after 3 hrs by Western blot analysis. Format: functional, cell-based.
Data set [10] deals with Transcription factor p65 (Homo sapiens) (UniProt Q04206). The data set is described as follows: Inhibition of TNFalpha-stimulated NF-kB p65 phosphorylation (unknown origin) expressed in human AD293 cells at 10 uM after 3 hrs by Western blot analysis. It counts as cell-based.
Chain of Transcription factor p65 (Homo sapiens) (Q04206 whole entry): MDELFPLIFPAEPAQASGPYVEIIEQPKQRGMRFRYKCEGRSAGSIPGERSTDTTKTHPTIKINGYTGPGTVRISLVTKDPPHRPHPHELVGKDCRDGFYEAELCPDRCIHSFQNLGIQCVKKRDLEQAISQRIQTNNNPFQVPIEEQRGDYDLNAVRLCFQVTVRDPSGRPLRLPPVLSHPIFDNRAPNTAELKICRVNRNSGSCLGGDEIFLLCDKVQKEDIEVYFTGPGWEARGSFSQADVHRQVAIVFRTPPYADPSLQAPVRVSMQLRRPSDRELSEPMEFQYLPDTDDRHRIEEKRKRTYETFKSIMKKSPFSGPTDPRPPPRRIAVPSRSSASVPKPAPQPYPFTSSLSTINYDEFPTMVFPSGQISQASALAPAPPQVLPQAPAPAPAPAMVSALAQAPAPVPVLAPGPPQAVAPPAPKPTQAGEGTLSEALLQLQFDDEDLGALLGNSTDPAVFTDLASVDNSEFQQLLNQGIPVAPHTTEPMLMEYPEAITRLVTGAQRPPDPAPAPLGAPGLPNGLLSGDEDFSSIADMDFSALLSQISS
For data set [11], the target named is T1, Toll-like receptor 4. The data set can be described thus: Antagonist activity at TLR4 in human THP1 cells harboring human TRAF6 assessed as inhibition of LPS-stimulated IL-1beta level at 10 uM by bead based immunoassay. It counts as cell-based.
Data set [12] addresses T1, Toll-like receptor 4. The data set is described as follows: Antagonist activity at TLR4 in human THP1 cells assessed as inhibition of LPS-stimulated NF-kB non-canonical signaling pathway by measuring decrease in RelB expression at 10 uM after 3 hrs by Western blot analysis. Format: cell-based.
The subject of data set [13] is THP-1. The data set is described as follows: Upregulation of IKKalpha protein expression in human THP1 cells at 10 uM after 3 hrs by Western blot analysis. It counts as functional, cell-based.
The target of data set [14] is T1, Toll-like receptor 4. The data set can be described thus: Antagonist activity at TLR4 in human THP1 cells assessed as increase in LPS-stimulated NFkappaB p65 phosphorylation at 10 uM after 3 hrs by Western blot analysis. Format: cell-based.
In data set [15] the target is T2, NF-kappa-B inhibitor alpha (Homo sapiens) (UniProt P25963).
T2 sequence (whole entry): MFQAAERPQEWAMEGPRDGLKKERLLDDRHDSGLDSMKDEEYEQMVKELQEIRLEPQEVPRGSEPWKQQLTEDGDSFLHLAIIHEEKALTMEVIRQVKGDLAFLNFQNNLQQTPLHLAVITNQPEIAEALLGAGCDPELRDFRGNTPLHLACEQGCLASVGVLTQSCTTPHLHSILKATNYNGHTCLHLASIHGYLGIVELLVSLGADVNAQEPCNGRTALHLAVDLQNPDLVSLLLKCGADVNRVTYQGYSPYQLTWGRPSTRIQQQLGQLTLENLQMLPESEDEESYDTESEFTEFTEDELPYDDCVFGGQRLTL
The data set can be described thus: Inhibition of TNFalpha-stimulated IkBalpha phosphorylation in human AD293 cells at 10 uM after 3 hrs by Western blot analysis. Format: cell-based.

The target in data set [16] is T1, Toll-like receptor 4. The data set can be described thus: Antagonist activity at TLR4 (unknown origin) expressed in human AD293 cells assessed as inhibition of LPS/ATP-stimulated TLR4/NF-kB signaling pathway after 16 hrs by luciferase reporter gene assay. It counts as cell-based. (Reporter assays use an easily measured gene product as a stand-in for the process of interest.)

The test system of data set [17] is AD293. The data set is described as follows: Cytotoxicity against human AD293 cells assessed as reduction in cell viability after 24 hrs by methylene blue dye based spectrophotometric method. As to conditions: ad293, 24 h.
Data set [18] deals with AD293. The data set is described as follows: Effect on IkBalpha protein expression in TNFalpha-stimulated human AD293 cells at 10 uM after 3 hrs by Western blot analysis. Format: functional, cell-based.
Data set [19] deals with T3, Nuclear factor NF-kappa-B p100 subunit (Homo sapiens) (UniProt Q00653).
T3 sequence (whole entry): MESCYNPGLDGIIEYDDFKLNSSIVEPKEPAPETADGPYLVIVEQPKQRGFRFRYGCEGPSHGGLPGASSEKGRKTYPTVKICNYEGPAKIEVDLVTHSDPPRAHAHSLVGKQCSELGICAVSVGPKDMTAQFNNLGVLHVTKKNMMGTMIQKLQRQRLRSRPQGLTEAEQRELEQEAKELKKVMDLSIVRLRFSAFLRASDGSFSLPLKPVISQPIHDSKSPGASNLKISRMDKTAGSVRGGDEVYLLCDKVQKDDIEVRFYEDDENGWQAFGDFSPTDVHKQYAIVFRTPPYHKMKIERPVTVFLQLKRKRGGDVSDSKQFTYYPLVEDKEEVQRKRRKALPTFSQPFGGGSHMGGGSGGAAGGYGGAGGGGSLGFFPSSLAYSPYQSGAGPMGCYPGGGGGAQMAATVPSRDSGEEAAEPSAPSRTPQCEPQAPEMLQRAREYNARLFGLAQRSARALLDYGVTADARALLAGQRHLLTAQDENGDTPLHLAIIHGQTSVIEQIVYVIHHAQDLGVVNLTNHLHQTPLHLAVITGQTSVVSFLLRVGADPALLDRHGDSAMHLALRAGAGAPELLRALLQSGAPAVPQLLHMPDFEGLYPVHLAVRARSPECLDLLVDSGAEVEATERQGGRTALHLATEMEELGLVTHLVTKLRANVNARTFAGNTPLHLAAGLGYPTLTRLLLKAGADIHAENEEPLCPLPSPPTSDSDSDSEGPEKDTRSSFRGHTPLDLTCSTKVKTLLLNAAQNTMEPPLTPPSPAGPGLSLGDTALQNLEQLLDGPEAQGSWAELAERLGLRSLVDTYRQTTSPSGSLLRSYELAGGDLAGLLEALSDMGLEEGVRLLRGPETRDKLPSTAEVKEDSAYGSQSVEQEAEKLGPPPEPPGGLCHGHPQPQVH
The data set can be described thus: Effect on p100/p52 phosphorylation in human THP1 cells at 10 uM after 3 hrs by Western blot analysis. Format: cell-based.

In data set [20] the target is T1, Toll-like receptor 4. The data set can be described thus: Antagonist activity at TLR4 in human THP1 cells assessed as inhibition of LPS-stimulated NF-kB non-canonical signaling pathway by measuring decrease in p100 phosphorylation at 10 uM after 3 hrs by Western blot analysis. Format: cell-based.
Data set [21] concerns the target Toll-like receptor 2 (Homo sapiens) (UniProt O60603). The data set is described as follows: Antagonist activity at TLR2 in human THP1 cells assessed as inhibition of PGN-stimulated IL-1beta level at 10 uM by bead based immunoassay. It counts as cell-based.
For data set [22], the species on record is Homo sapiens. The data set can be described thus: Inhibition of TNFalpha-stimulated NF-kB signaling pathway (unknown origin) expressed in human AD293 cells after 4 hrs by luciferase reporter gene assay. It counts as cell-based.
In data set [23] the test system is THP-1. The data set is described as follows: Effect on RelB protein expression in human THP1 cells at 10 uM after 3 hrs by Western blot analysis. It counts as functional, cell-based.

Each structure is given as a SMILES string. Calls of active or inactive are those of the source. The rule behind the calls is not given here. Where only a bound is given, the exact number is not on record here.

T1 sequence (O00206 whole entry): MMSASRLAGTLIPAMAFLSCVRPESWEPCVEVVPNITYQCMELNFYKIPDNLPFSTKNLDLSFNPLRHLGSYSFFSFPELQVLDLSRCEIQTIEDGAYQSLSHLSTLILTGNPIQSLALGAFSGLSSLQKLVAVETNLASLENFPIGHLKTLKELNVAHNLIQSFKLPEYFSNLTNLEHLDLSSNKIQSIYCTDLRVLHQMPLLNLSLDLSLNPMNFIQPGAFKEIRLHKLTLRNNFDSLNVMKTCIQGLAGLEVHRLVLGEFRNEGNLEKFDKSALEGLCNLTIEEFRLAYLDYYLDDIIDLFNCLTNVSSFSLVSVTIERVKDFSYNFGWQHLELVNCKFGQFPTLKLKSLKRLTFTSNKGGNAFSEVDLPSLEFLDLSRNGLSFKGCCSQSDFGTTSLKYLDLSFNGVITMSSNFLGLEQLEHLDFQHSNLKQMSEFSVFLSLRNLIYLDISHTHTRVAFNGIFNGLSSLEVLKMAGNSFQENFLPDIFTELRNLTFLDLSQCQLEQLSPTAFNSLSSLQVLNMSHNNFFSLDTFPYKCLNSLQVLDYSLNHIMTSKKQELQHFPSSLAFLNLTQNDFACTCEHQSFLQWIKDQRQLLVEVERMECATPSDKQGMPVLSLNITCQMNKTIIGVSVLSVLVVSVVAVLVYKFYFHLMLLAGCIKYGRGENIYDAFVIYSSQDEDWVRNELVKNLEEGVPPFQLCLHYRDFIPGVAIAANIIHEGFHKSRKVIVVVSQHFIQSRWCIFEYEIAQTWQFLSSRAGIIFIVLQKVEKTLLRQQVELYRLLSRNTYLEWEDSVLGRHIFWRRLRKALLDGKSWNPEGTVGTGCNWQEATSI
Chain of Toll-like receptor 3 (Homo sapiens) (O15455 whole entry): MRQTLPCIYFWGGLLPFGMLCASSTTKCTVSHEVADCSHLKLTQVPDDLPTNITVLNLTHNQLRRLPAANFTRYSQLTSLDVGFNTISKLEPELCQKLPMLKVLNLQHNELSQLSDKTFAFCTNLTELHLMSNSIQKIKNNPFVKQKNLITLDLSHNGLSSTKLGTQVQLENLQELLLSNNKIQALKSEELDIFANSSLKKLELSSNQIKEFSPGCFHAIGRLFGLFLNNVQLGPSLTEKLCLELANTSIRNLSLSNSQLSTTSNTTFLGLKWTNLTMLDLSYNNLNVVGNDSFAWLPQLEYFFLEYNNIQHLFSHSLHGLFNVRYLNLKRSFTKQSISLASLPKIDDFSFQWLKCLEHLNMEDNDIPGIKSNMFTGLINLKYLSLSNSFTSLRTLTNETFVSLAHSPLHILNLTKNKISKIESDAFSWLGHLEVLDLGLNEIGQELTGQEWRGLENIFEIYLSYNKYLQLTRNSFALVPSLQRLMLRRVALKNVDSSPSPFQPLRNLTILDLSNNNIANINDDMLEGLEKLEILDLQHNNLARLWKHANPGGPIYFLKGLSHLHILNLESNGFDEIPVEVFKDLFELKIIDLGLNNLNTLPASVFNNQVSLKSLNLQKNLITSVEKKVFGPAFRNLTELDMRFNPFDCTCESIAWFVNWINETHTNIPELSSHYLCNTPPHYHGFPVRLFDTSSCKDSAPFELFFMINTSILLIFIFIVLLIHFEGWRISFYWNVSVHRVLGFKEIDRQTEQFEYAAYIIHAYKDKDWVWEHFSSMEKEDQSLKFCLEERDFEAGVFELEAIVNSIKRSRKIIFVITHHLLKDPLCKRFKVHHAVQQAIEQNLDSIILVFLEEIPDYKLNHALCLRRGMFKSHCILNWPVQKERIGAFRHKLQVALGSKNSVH

As usually defined, the EC50 is the concentration that produces a half-maximal response. Usually EC10 stands for the point of the concentration-response curve where the effect stands at 10%. Lower therefore signals greater potency. On to `CC(=O)[C@]1(O)CC[C@@]2(O)[C@]1(C)[C@H](OC(=O)c1ccc(O)cc1)C[C@@H]1[C@@]3(C)CC[C@H](OC(=O)CCl)CC3=CC[C@]12O`, for which the inhibition entry in data set [1], in [2], in data set [3], in data set [7], in [8] and in [21] was “Active” in each case. For the same compound, the outcome in data set [4], in [9] and in [13] was Active. Besides, the inhibition entry in data set [5], in data set [6], in data set [10], in data set [11], in data set [12] and in data set [14] was “inactive” throughout. The inhibition entry in [15] and in data set [20] was “inactive” in each case. Also, the EC50 in [16] is 3.27 µM. Also, the CC10 in data set [17] was greater than 10 µM. Besides, the outcome in data set [18], in data set [19] and in [23] was inactive. Moreover, the 10% effect concentration (EC10) in data set [22] was greater than 10 µM.

For `COc1ccc(/C=C/C(=O)O[C@H]2CC[C@@]3(C)C(=CC[C@]4(O)[C@@H]3C[C@@H](OC(=O)/C=C(\C)C(C)C)[C@@]3(C)[C@]4(O)CC[C@@]3(O)C(C)=O)C2)cc1`, the inhibition result in data set [1], in [2], in [3], in [7], in [8] and in data set [14] was “Active” in each case. In addition, in data set [21], the inhibition entry is “Active”. In addition, the result in data set [4], in data set [9] and in data set [13] was Active. The inhibition result in [5], in data set [6], in [10], in data set [11], in data set [12] and in data set [15] was “inactive” throughout. The inhibition result in data set [20] is “inactive”. In addition, the EC50 in data set [16] was 3.95 µM. In data set [17], the CC10 was greater than 10 µM. Moreover, the outcome in [18], in [19] and in data set [23] was inactive. Also, the EC10 in [22] is greater than 10 µM.
